Values quoted from earlier work in patent publication US20220409679A1, “COMPOSITIONS AND METHODS WITH A PROBIOTIC AND A NUTRIENT AND/OR MINERAL FOR THE PREVENTION OR TREATMENT OF MASTITIS” (SOCIETE DES PRODUITS NESTLE S.A., priority 2019, published 2022).

Columns and labels:
mastitis in cows = conditions: O'Rourke 2009; for symptoms associated with mastitis: supplementation
[1] = O'Rourke 2009

SMILES	immune system (mastitis in cows)	symptoms associated with mastitis (mastitis in cows)	antibacterial activity in milk [1]
[Cu] [copper]	enhance the immune system	reduce mastitis symptoms in cows	
[Se] [selenium]		improves symptoms associated with mastitis in cows	improves antibacterial activity in milk
[Zn] [zinc]	enhance the immune system	reduce mastitis symptoms in cows	
